Experiments:
[1] = Sensory evaluation of aqueous solution I containing (E)-2-nonenal 1 ppb: off-flavor intensity and masking component intensity; conditions: (E)-2-nonenal 1 ppb, average score 0-4
In short: (§1)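 8 trained panelists; degradant in ion-exchanged water + nootkatone. Off-flavor 0–4, relative (no masker = 4, water = 0); masker flavor 0–4, absolute.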

[2] = Sensory evaluation of aqueous solution II containing (E)-2-octenal 10 ppb: off-flavor intensity and masking component intensity; conditions: (E)-2-octenal 10 ppb, average score 0-4
In short: as §1

[3] = Sensory evaluation of aqueous solution III containing 1-octen-3-one 1 ppb: off-flavor intensity and masking component intensity; conditions: 1-octen-3-one 1 ppb, average score 0-4
In short: as §1

[4] = Sensory evaluation of aqueous solution IV containing 1,5-octadien-3-one 100 ppt: off-flavor intensity and masking component intensity; conditions: aqueous solution IV, 1,5-octadien-3-one 100 ppt, average score 0-4
In short: as §1

[5] = Sensory evaluation of aqueous solution V containing 1-octen-3-ol 10 ppb: off-flavor intensity and masking component intensity; conditions: 1-octen-3-ol 10 ppb, average score 0-4
In short: as §1

[6] = Sensory evaluation of aqueous solution VI containing 1,5-octadien-3-ol 10 ppb: off-flavor intensity and masking component intensity; conditions: aqueous solution VI, 1,5-octadien-3-ol 10 ppb, average score 0-4
In short: as §1

[7] = Sensory evaluation of degradation component-added soymilk I ((E)-2-nonenal 5 ppb); conditions: average panel score
Protocol: (§2) To commercially available soymilk (“Delicious Unadjusted Soymilk” manufactured by Kikkoman Corporation), each degradation component was added to prepare degradation component-added soymilks at the concentrations listed in Table 23. To these degradation component-added soymilks, 1,4-dioxacycloheptadecan-5,17-dione was added at the concentrations listed in Table 23 to confirm the intensity of the off-flavor (masking effect) and the intensity of the masking components (impact on the flavor of the soymilk itself) for each sample.
(§3) Eight experienced panelists were selected to conduct a sensory evaluation similar to that of Example 1. […]

[8] = Sensory evaluation of degradation component-added soymilk II (1-octen-3-ol 500 ppb); conditions: average panel score
Protocol: as §2, §3

[9] = Overall conclusion of the sensory evaluation across aqueous solutions I to VI
In short: as §1

[10] = Overall conclusion of the sensory evaluation across soymilks I and II
Protocol: as §2
Eight experienced panelists were selected to conduct a sensory evaluation similar to that of Example 1.
The same method as in Example 20 was used to confirm the intensity of the off-flavor (masking effect) derived from unsaturated fatty acids by α-methyl ionone and the intensity of the masking components (impact on the flavor of the soymilk itself).
The same method as in Example 20 was used to confirm the intensity of the off-flavor (masking effect) derived from unsaturated fatty acids by menthyl 3-hydroxybutyrate and the intensity of the masking components (impact on the flavor of the soymilk itself).

CCC(=O)/C=C/C1C(C)=CCCC1(C)C (stereo not drawn) [α-Methyl Ionone, α-methyl ionone]
Off-Flavor Intensity ([1]; 0.01 ppt added): 3.9 points
Off-Flavor Intensity ([1]; 0.1 ppt added): 3.3 points
Off-Flavor Intensity ([1]; 1 ppb added): 1.5 points
Off-Flavor Intensity ([1]; 1 ppm added): 0.3 points
Off-Flavor Intensity ([1]; 1 ppt added): 2.9 points
Off-Flavor Intensity ([1]; 10 ppb added): 1.0 points
Off-Flavor Intensity ([1]; 10 ppt added): 2.4 points
Off-Flavor Intensity ([1]; 100 ppb added): 0.3 points
Off-Flavor Intensity ([1]; 100 ppt added): 1.8 points
Off-Flavor Intensity ([2]; 0.01 ppt added): 3.1 points
Off-Flavor Intensity ([2]; 0.1 ppt added): 2.8 points
Off-Flavor Intensity ([2]; 1 ppb added): 1.0 points
Off-Flavor Intensity ([2]; 1 ppm added): 0.3 points
Off-Flavor Intensity ([2]; 1 ppt added): 2.1 points
Off-Flavor Intensity ([2]; 10 ppb added): 0.8 points
Off-Flavor Intensity ([2]; 10 ppt added): 1.5 points
Off-Flavor Intensity ([2]; 100 ppb added): 0.4 points
Off-Flavor Intensity ([2]; 100 ppt added): 1.1 points
Off-Flavor Intensity ([3]; 0.01 ppt added): 3.4 points
Off-Flavor Intensity ([3]; 0.1 ppt added): 3.1 points
Off-Flavor Intensity ([3]; 1 ppb added): 1.4 points
Off-Flavor Intensity ([3]; 1 ppm added): 0.3 points
Off-Flavor Intensity ([3]; 1 ppt added): 2.6 points
Off-Flavor Intensity ([3]; 10 ppb added): 1.3 points
Off-Flavor Intensity ([3]; 10 ppt added): 2.3 points
Off-Flavor Intensity ([3]; 100 ppb added): 0.3 points
Off-Flavor Intensity ([3]; 100 ppt added): 1.9 points
Off-Flavor Intensity ([4]; 0.01 ppt added): 3.4 points
Off-Flavor Intensity ([4]; 0.1 ppt added): 3.3 points
Off-Flavor Intensity ([4]; 1 ppb added): 1.5 points
Off-Flavor Intensity ([4]; 1 ppm added): 0.4 points
Off-Flavor Intensity ([4]; 1 ppt added): 2.9 points
Off-Flavor Intensity ([4]; 10 ppb added): 1.4 points
Off-Flavor Intensity ([4]; 10 ppt added): 2.6 points
Off-Flavor Intensity ([4]; 100 ppb added): 0.8 points
Off-Flavor Intensity ([4]; 100 ppt added): 1.9 points
Off-Flavor Intensity ([5]; 0.01 ppt added): 3.6 points
Off-Flavor Intensity ([5]; 0.1 ppt added): 3.3 points
Off-Flavor Intensity ([5]; 1 ppb added): 1.4 points
Off-Flavor Intensity ([5]; 1 ppm added): 0.1 points
Off-Flavor Intensity ([5]; 1 ppt added): 2.8 points
Off-Flavor Intensity ([5]; 10 ppb added): 0.8 points
Off-Flavor Intensity ([5]; 10 ppt added): 2.4 points
Off-Flavor Intensity ([5]; 100 ppb added): 0.5 points
Off-Flavor Intensity ([5]; 100 ppt added): 1.8 points
Off-Flavor Intensity ([6]; 0.01 ppt added): 3.5 points
Off-Flavor Intensity ([6]; 0.1 ppt added): 3.3 points
Off-Flavor Intensity ([6]; 1 ppb added): 1.4 points
Off-Flavor Intensity ([6]; 1 ppm added): 0.5 points
Off-Flavor Intensity ([6]; 1 ppt added): 2.8 points
Off-Flavor Intensity ([6]; 10 ppb added): 1.4 points
Off-Flavor Intensity ([6]; 10 ppt added): 2.4 points
Off-Flavor Intensity ([6]; 100 ppb added): 0.6 points
Off-Flavor Intensity ([6]; 100 ppt added): 2.0 points
Masking Component Intensity ([7]; 1 ppb added): 0.8
Off-Flavor Intensity ([7]; 1 ppb added): 2.6
Masking Component Intensity ([7]; 1 ppm added): 3.9
Off-Flavor Intensity ([7]; 1 ppm added): 0.5
Masking Component Intensity ([7]; 10 ppb added): 1.9
Off-Flavor Intensity ([7]; 10 ppb added): 1.9
Masking Component Intensity ([7]; 100 ppb added): 3.1
Off-Flavor Intensity ([7]; 100 ppb added): 1.0
Masking Component Intensity ([7]; 100 ppt added): 0.1
Off-Flavor Intensity ([7]; 100 ppt added): 3.0
Masking Component Intensity ([8]; 1 ppb added): 0.8
Off-Flavor Intensity ([8]; 1 ppb added): 2.1
Masking Component Intensity ([8]; 1 ppm added): 3.9
Off-Flavor Intensity ([8]; 1 ppm added): 0.4
Masking Component Intensity ([8]; 10 ppb added): 1.4
Off-Flavor Intensity ([8]; 10 ppb added): 1.3
Masking Component Intensity ([8]; 100 ppb added): 2.8
Off-Flavor Intensity ([8]; 100 ppb added): 0.9
Masking Component Intensity ([8]; 100 ppt added): 0.4
Off-Flavor Intensity ([8]; 100 ppt added): 2.5
concentration that masks the off-flavor and does not affect the flavor of the food and/or beverage itself, lower limit [9]: ≥ 0.1 ppt
concentration that masks the off-flavor and does not affect the flavor of the food and/or beverage itself, upper limit [9]: ≤ 100 ppb
concentration that masks the off-flavor and does not affect the flavor of the soymilk itself, lower limit [10]: ≥ 100 ppt
concentration that masks the off-flavor and does not affect the flavor of the soymilk itself, upper limit [10]: ≤ 100 ppb
